In paper PMC6107127, “Characteristics of the mitochondrial and cellular uptake of MPP^+, as probed by the fluorescent mimic, 4'I-MPP^+” (PLoS ONE, 2018):

Legend:
MN9D cells [1] = test: Cellular uptake of MPP+ and 4'I-MPP+ (HPLC-UV / fluorescence); type: cell-based, mouse; conditions: 100 μM toxin, 60 min, 37 °C, KRB-HEPES
Experimental: Cells were seeded into 12-well plates at 0.25 x 10^6 cells/well and grown 2–3 days to about 70–80% confluency. The media was removed and a solution containing 100 μM MPP^+ or 4'I-MPP^+ in warm KRB-HEPES (or without Ca^2+ and with 1.4 mM EGTA) was added to each well and incubated at 37 °C for the desired period of time (see Figure legends for further details). After the incubations, the media were removed and cells were washed with ice-cold KRB-HEPES. Washed cells were suspended in 1.0 mL of ice-cold KRB-HEPES and 50 μL aliquots were withdrawn for protein determination. The remaining cell suspensions were centrifuged at 5000 x g at 4 °C for 5 min and the cell pellets were treated with 75 μL of 0.1 M HClO4. The coagulated proteins were pelleted by centrifugation at 13,200 x g at 4 °C for 8 min and the MPP^+ or 4'I-MPP^+ contents of the supernatants were determined by C18-reversed-phase HPLC-UV (HPLC-UV) as previously described using standard curves constructed from authentic standards. The standard curves for HPLC-UV quantifications were constructed using authentic samples of MPP^+ and 4'I-MPP^+ under the same HPLC-UV separation conditions (S1 Fig).
To quantify 4'I-MPP^+ uptake by fluorescence, MN9D or HepG2 cells grown in glass bottomed plates, washed, and reconstituted with KRB-HEPES (1.0 mL), pH 7.4, and mounted on the stage of a Nikon ECLIPSE Ti-S inverted fluorescence microscope. […]

MN9D cells [2] = test: MTT cell viability assay; type: cell-based; conditions: Mus musculus, 16 h incubation
Experimental: Cell viability was determined by the MTT [3-(4,5-dimethylthiazol-2-yl)-2,5-diphenyltetrazolium bromide)] assay. Briefly, cells were seeded on 96-well plates and allowed to grow to about 70–80% confluence. Prior to the experiment, culture media was replaced with KRB-HCO3^- containing desired concentrations of MPP^+ or 4'I-MPP^+ and incubated for 16 h at 37 °C. After the incubation, 10 μL of 5 mg/mL MTT solution was added to each well and incubated for 2 h at 37 °C. The resulting formazan was solubilized by the addition of 210 μL detergent solution [50% DMF/H2O (v/v), 20% SDS (w/v)] followed by incubation at 37 °C for 12 h. The cell viabilities were determined by quantifying solubilized formazan by measuring the difference in the absorbance at 570 nm and 650 nm. Results were expressed as % viability of MPP^+ or 4'I-MPP^+ treated cells with respect to control cells, which were treated under the same conditions except in the absence of the MPP^+ or 4'I-MPP^+.

[3] = system: rat brain mitochondrial complex-I (NADH: ubiquinone oxidoreductase); test: Ubiquinone dependent NADH oxidation (complex-I inhibition); type: biochemical; conditions: 200 μM
Experimental: Isolated rat brain mitochondria were lysed by freeze-thawing in hypotonic media containing 25 mM K3PO4 and 5 mM MgCl2, pH 7.2 [22]. The complex-I (i.e. NADH: ubiquinone oxidoreductase) activity of mitochondrial membrane fragments were determined according to the procedure of Birch-Machin and Turnbull. Briefly, mitochondrial membranes (50 μg protein) were incubated with 130 μM NADH (final concentration) and Antimycine A (2 μg/mL) in a 1.0 mL assay solution containing 25 mM K3PO4, 5 mM MgCl2, 2 mM KCN, 2.5 mg/mL bovine serum albumin, pH 7.2, for 2 min at 37 °C with or without rotenone, MPP^+ or 4'I-MPP^+ (for further details see the corresponding figure legends). The complex-I mediated ubiquinone dependent NADH oxidation was initiated by adding ubiquinone-1 to a final concentration of 65 μM and the initial rates of the reactions were monitored by following the decrease in absorbance at 340 nm with respect to 425 nm reference wavelength for 5 min.

MN9D cells [4] = test: Intracellular ATP levels; type: cell-based, mouse; conditions: 100 μM, 6 h at 37 °C
Experimental: (§1) Cells grown in 12-well plates were treated with 100 μM MPP^+ or 4'I-MPP^+ in KRB-HEPES for 6 h at 37 °C. After the treatments, cells were suspended in 1 mL of ice-cold KRB-HEPES and 50 μL samples were withdrawn for protein quantification. The remaining cell suspensions were centrifuged for 3 min at 3,500 x g at 4 °C and the cell pellets were treated with 1 mL of lysis buffer (0.1 M Tris, 1% Triton X-100, pH 7.5) for 2 min and centrifuged at 3,500 x g for 3 min to remove the cell debris. The ATP contents of the supernatants were measured using a fluorometric ATP assay kit (BioVision, Milpitas CA, USA) following the manufacture’s guidelines. All ATP levels were normalized to the protein content of each sample.

HepG2 cells = test: Intracellular ATP levels; type: cell-based, human; conditions: 100 μM, 6 h at 37 °C
Experimental: as §1

MN9D cells [5] = test: Intracellular ROS (DCFH-DA); type: cell-based, mouse; conditions: 100 μM, 1 h at 37 °C
Experimental: Cells grown in 12-well plates were incubated with 10 μM DCFH-DA in KRB-HEPES for 1 h. […] After the incubations, cells were washed, harvested, solubilized with 0.1 M Tris buffer (pH 7.5) containing 1% Triton X-100, and cell debris were removed by centrifugation at 13,200 x g for 8 min at 4 °C. The content of ROS-oxidized DCFH product, 2',7'-dichlorofluorescein (DCF) in the supernatants were quantified by fluorescence (Ex/Em 488/524 nm). The data were normalized to the protein contents of individual samples. ROS productions in DCFH-DA (50 μM) loaded 250 μM 4'I-MPP^+ treated (4 h) live MN9D cells were visualized by confocal fluorescence microscopy at Ex/Em 488/524 nm using a Leica TCS SP5II microscope.

[6] = Relative HPLC elution times and hydrophobicities; type: physicochemical
[7] = Solubility in incubation media; type: physicochemical; conditions: concentrations above 200 μM

In the case of `C[n+]1ccc(-c2ccc(I)cc2)cc1` [4'I-MPP^+, 1-methyl-4-(4'-iodophenyl)pyridinium], the “cellular uptake in 1 h” value (MN9D cells [1]) is reported as 1.2 nmoles/mg of protein, the IC50 (MN9D cells [2]) is reported as about 40 µM and the “inhibition of the complex-I activity” value [3] is reported as 46%. For the same compound, the “effect on intracellular ATP levels” value (MN9D cells [4]) was “deplete intracellular ATP levels”, the “effect on intracellular ATP levels” value (HepG2 cells) was “deplete intracellular ATP levels” and the “effect on ROS production” value (MN9D cells [5]) was “increase ROS production”. The “relative elution time (hydrophobicity)” value ([6]; Buffer:CH3CN 70:30) was 11.76, the “relative elution time (hydrophobicity)” value ([6]; Buffer:CH3CN:MeOH 60:30:10) was 8.88 and the “relative elution time (hydrophobicity)” value ([6]; Buffer:CH3CN:MeOH 65:25:10) was 12.56. For the same compound, the “solubility in the incubation media” value [7] was “low solubility”.
